Data reported in patent US20250207091A1, “METHODS AND COMPOSITIONS FOR PRODUCING PRIMORDIAL GERM CELL-LIKE CELLS” (President and Fellows of Harvard College, priority 2022, published 2025).

Legend:
SW480 cells = details: Huang et al.; cited from earlier work
[1] = system: NANOS3-mVenus PSCs (hiPSCs); assay: Primordial germ cell (hPGCLC) induction via TF overexpression in hiPSCs; format: cell-based, human; details: for effect on NANOS3+ hPGCLC yield: doxycycline induction, monolayer, FIG. 1B
Source text: FIGS. 1A-1B show identification of overexpressed transcription factors (TFs) that drive enhancement of NANOS3+ primordial germ cell yield.
A method was designed for high yield germ cell formation from stem cells in monolayer culture conditions, which is described in more detail below and in FIG. 4 with a culture media composition described in Table 1. The TFs DLX5, HHEX, or FIGLA or all three together, were integrated to iPSCs via piggyBac or lentivirus and a purified pool was selected through antibiotic addition. For germ cell induction, 2,500 TF-containing iPSCs per cm^2 were seeded in mTeSR™ medium on Corning® Matrigel® Matrix for six hours. After about 12-18 hours, Media #1 was removed and the cells were again washed, and Media #2 was added. The cells were then grown for about 24 hours, after which Media #2 was replaced by Media #3. The cells were again grown for about 24 hours, after which Media #3 was replaced by Media #4. Finally, the cells were again grown for about 24 hours, at which point primordial germ cells was harvested and isolated via FACS.
Expression plasmids containing TF cDNAs under the control of a doxycycline-inducible promoter were integrated into iPSCs using PiggyBac transposase. To perform the integration, ˜50-100 fmol of TF cDNA plasmid, ˜150-250 ng PiggyBac transposase expression plasmid, and ˜100,000-200,000 iPSCs were combined in Lonza P3 buffer and electroporated using a Lonza Nucleofector 4D. After electroporation, cells were seeded in 24-well plates in mTeSR™ Plus Medium+˜8-12 μM Y-27632. Selection with the appropriate agent (typically puromycin) commenced 48 hours after electroporation and continued for ˜3-5 days. Cells were then passaged without drug selectin for ˜3 days to allow for non-integrated plasmid loss. Finally, cells were again passaged under drug selection to generate a pure, selected integrant pool. Presence and approximate copy number of integrated TF plasmids was confirmed by qPCR on genomic DNA. For oogonia, pools of hiPSCs were utilized, not single cell selected clones. Average copy number was 8-10.
hiPSCs containing integrated TF expression plasmids were cultured in mTeSR 1 medium on Matrigel. For induction in monolayer, hiPSCs are disassociated to single cells using Accutase and seeded on Matrigel or vitronectin XF coated plates at a density of 2,500-3,000 cells per cm^2 in mTeSR™ media+˜8-10 μM Y-27632 and ˜0.5-3 μg/ml doxycycline for about 6 hours. Media was then removed and washed with dPBS and replaced with aRB27 media #1 (see components list in detailed protocol). After about 12-18 hours of induction, media #1 is removed and washed with dPBS and replaced by media #2. After about 24 hours, media #2 is removed and replaced by media #3. […]

PDGFR = details: cited from earlier work
MEK = details: cited from earlier work
c-Src = c-Src (Homo sapiens, UniProt P12931); details: cited from earlier work
PKC = details: cited from earlier work
VEGFR2 = VEGFR2 (Homo sapiens, UniProt P35968); details: cited from earlier work
VEGFR2, sequence (P35968 20-1356, species assumed): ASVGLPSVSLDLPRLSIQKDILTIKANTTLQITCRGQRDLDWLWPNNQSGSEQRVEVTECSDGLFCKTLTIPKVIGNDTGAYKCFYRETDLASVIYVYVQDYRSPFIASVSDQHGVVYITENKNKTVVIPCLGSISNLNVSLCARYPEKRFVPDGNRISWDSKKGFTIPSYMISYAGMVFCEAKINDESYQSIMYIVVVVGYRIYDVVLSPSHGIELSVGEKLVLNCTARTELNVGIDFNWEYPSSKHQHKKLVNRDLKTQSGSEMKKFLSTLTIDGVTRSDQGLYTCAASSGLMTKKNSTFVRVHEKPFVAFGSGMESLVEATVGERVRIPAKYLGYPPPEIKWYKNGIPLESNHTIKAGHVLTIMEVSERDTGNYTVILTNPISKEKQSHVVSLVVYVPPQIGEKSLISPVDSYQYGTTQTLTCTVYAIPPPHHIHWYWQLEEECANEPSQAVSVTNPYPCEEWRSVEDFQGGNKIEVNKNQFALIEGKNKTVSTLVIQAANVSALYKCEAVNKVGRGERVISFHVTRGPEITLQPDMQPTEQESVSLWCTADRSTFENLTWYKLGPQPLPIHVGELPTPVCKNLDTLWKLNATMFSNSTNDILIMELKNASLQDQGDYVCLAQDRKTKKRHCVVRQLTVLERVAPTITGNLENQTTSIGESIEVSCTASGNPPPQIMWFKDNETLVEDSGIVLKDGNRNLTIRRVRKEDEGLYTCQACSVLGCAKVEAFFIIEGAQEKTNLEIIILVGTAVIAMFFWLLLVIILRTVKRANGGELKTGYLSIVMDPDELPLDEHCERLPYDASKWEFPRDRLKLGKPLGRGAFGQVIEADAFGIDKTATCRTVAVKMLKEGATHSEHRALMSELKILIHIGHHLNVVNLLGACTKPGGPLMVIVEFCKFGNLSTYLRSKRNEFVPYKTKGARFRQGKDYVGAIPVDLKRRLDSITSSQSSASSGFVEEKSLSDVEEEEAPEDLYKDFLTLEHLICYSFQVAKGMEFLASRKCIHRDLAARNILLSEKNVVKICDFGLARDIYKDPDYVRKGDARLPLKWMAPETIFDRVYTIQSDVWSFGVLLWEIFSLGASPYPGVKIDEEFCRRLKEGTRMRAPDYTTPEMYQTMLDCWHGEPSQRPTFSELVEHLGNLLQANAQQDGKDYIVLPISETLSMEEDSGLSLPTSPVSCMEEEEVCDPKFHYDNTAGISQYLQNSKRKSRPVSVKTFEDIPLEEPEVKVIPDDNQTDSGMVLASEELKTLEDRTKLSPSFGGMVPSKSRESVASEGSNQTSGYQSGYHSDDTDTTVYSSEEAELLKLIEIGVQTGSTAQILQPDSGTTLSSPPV

c-Src, sequence (P12931 whole entry, species assumed): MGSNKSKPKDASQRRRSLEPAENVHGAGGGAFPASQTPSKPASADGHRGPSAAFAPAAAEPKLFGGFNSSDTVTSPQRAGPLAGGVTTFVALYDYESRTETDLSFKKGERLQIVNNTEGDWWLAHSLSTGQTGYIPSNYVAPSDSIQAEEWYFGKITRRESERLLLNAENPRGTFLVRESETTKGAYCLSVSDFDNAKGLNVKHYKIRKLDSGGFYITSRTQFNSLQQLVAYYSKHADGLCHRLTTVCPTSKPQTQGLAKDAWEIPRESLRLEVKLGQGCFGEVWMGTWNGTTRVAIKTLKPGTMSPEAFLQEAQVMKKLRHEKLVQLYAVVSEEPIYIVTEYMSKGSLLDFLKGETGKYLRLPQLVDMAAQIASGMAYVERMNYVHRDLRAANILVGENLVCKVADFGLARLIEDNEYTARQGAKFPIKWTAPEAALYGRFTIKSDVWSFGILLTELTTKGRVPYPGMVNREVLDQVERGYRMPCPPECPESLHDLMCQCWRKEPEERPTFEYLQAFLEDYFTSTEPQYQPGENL

Oc1nc(-c2ccc(C(F)(F)F)cc2)nc2c1CSCC2 [XAV939]
effect on β-catenin (SW480 cells): promotes the degradation of β-catenin

DLX5: Distal-Less Homeobox 5 transcription factor (SEQ ID NO: 2), overexpressed in PSCs from a doxycycline-inducible polynucleotide
germ cell formation rescue compared to wildtype ([1]; absence of BMP4): 50% | effect on NANOS3+ hPGCLC yield [1]: enhanced | activity (hPGCLC yield) retained without hBMP4 ([1]; without hBMP4, compared to normal condition, FIG. 3A): 40%

FIGLA: Folliculogenesis Specific BHLH Transcription Factor (SEQ ID NO: 1), overexpressed in PSCs from a doxycycline-inducible polynucleotide
effect on NANOS3+ hPGCLC yield [1]: enhanced

CCN(CC)CCCCNc1ncc2cc(-c3cc(OC)cc(OC)c3)c(NC(=O)NC(C)(C)C)nc2n1 [PD 173074]
IC50 (PDGFR): ~17.6 µM | IC50 (MEK): > 50 µM | IC50 (c-Src): ~19.8 µM | IC50 (PKC): > 50 µM | IC50 (VEGFR2): ~100 nM

B1: HHEX: Hematopoietically Expressed Homeobox transcription factor (SEQ ID NO: 3), overexpressed in PSCs from a doxycycline-inducible polynucleotide (protein)
chain: MQYPHPGPAAGAVGVPLYAPTPLLQPAHPTPFYIEDILGRGPAAPTPAPTLPSPNSSFTSLVSPYRTPVYEPTPIHPAFSHHSAAALAAAYGPGGFGGPLYPFPRTVNDYTHALLRHDPLGKPLLWSPFLQRPLHKRKGGQVRFSNDQTIELEKKFETQKYLSPPERKRLAKMLQLSERQVKTWFQNRRAKWRRLKQENPQSNKKEELESLDSSCDQRQDLPSEQNKGASLDSSQCSPSPASQEDLESEISEDSDQEVDIEGDKSYFNAG
effect on NANOS3+ hPGCLC yield [1]: enhanced
